The values that follow are results of earlier work, collected in patent US9149457B2, “Nutraceutical composition for PDE4 inhibition, enhanced dopamine metabolism and long term potentiation” (priority 2013, dated 2015).

The subject of data set [1] is acetylcholine. The settings on record: references 33-35.
Data set [2] concerns phosphodiesterase enzymes (PDE 1 through 5). The settings on record: references 24-27.
For data set [3] the following is noted: references 46-47.
For data set [4] the following is noted: references 7-13.

For the molecule `CC(=O)O[C@H](CC(=O)[O-])C[N+](C)(C)C` [Acetyl-L-carnitine, acetyl-L-carnitine], the “levels of acetylcholine in the brain” value in data set [1] is “increase the levels”. With `O=c1cc(-c2ccc(O)c(O)c2)oc2cc(O)cc(O)c12` [Luteolin, luteolin], the “inhibition of phosphodiesterase enzymes that degrade 3',5'-cyclic nucleotides” value in data set [2] is “can inhibit”. For `O=C(/C=C/C=C/c1ccc2c(c1)OCO2)N1CCCCC1` [Piperine, piperine], the bioavailability of resveratrol entry in data set [3] is on record as “enhance the bioavailability of resveratrol”. Take `COc1ccc(C2CNC(=O)C2)cc1OC1CCCC1` (stereo not shown) [rolipram]: the side effect entry in data set [4] is listed as “emesis (vomiting) at low doses”.
